This is an account of results in patent US9023398B2, “Method for improving the aqueous solubility of poorly-soluble substances” (Kabushiki Kaisha Sangi, priority 2009, dated 2015).

Series [1] in a line: Dissolution test of poorly-soluble substances using distilled water. Format: physicochemical.
Series [2] is described as follows: Dissolution test of poorly-soluble substances using 2nd fluid for disintegration test (pH 6.8) of the Japanese Pharmacopoeia. Format: physicochemical.
Experimental: From initiation of the test, the mixed solution was stirred with a stirrer having a length of 15 mm. The rotation number of the stirrer was 120 rpm, and all of the tests were conducted in a thermostat at 37±0.5° C. Two types of test solutions, namely, distilled water and 2nd fluid for disintegration test (pH 6.8) of the Japanese Pharmacopoeia were used. As such 2nd fluid for disintegration test of the Japanese Pharmacopoeia, a solution prepared by diluting the 10-fold concentration solution of Kanto Kagaku Co., Ltd. with distilled water was used.
A comparative test was carried out in the same manner as that described above with the exception that a poorly-soluble substance or the like was used in an amount equal to that of a substance with improved aqueous solubility, instead of the substance with improved aqueous solubility.
1 mL of the solution was sampled in an Eppendorf centrifuge tube, 1, 3, 10, 30, 60, 180 and 360 minutes after initiation of the test. The thus sampled solution was centrifuged at 12,000 rpm for 5 minutes. […] In the case of the comparative test, the poorly-soluble substance or the like, which had not been dissolved in the solution, was removed. An aliquot of this supernatant was immediately frozen. The frozen sample was freeze-dried, and it was then used as a sample in the measurement of the amount of the substance with improved aqueous solubility, which had been dissolved in the test solution. The dissolved poorly-soluble substance was measured mainly using a dual wavelength absorption photometer.
Where [3] appears, read: 2nd fluid for disintegration test, elution time 1 min.
Setting [4] is: 2nd fluid for disintegration test, elution time 3 min.
[5] abbreviates: 2nd fluid for disintegration test, elution time 10 min.
Setting [6] is: 2nd fluid for disintegration test, elution time 30 min.
The mark [7] stands for this setting: 2nd fluid for disintegration test, elution time 60 min.
[8] abbreviates: 2nd fluid for disintegration test, elution time 180 min.
Setting [9] is: 2nd fluid for disintegration test, elution time 360 min.
Where [10] appears, read: 2nd fluid for disintegration test, elution time 120 min.
The mark [11] stands for this setting: after dissolution test for 360 minutes, distilled water, 37±0.5° C.
The mark [12] stands for this setting: after dissolution test for 360 minutes, Second disintegration test medium (pH 6.8), 37±0.5° C.

Each structure is given as a SMILES string.

Take `Cn1c(=O)c2[nH]cnc2n(C)c1=O` [Comparative Example 15, Theophylline]: the Dissolved amount in series [1] (water, elution time 1 min) amounted to 7082.2 µg/mL; in series [1] (water, elution time 3 min), 7897.9 µg/mL; in series [1] (water, elution time 10 min), 8554.7 µg/mL; in series [1] (water, elution time 30 min), 8621.6 µg/mL; in series [1] (water, elution time 60 min), 8652.4 µg/mL; in series [1] (water, elution time 180 min), 8672.3 µg/mL. The Dissolved amount stood at 8691.5 µg/mL in series [1] (water, elution time 360 min); 8133.8 µg/mL in series [2] (setting [3]); 8635.7 µg/mL in series [2] (setting [4]); 8596.0 µg/mL in series [2] (setting [5]); 8929.7 µg/mL in series [2] (setting [6]); 9096.5 µg/mL in series [2] (setting [7]). In addition, the values for the Dissolved amount in series [2] (setting [8]) and in series [2] (setting [9]) were 8906.5 µg/mL and 8906.2 µg/mL, respectively.
Take `CCN(CC)CCNC(=O)c1cc(Cl)c(N)cc1OC` [compound 33, Metoclopramide]: the Dissolved amount in series [1] (Metoclopramide, water, elution time 3 min) was found to be 6159.5 µg/mL; in series [1] (Metoclopramide, water, elution time 10 min), 5382.3 µg/mL; in series [1] (Metoclopramide, water, elution time 30 min), 5437.6 µg/mL; in series [1] (Metoclopramide, water, elution time 120 min), 5478.0 µg/mL; in series [1] (Metoclopramide, water, elution time 360 min), 5654.9 µg/mL; in series [2] (Metoclopramide, 2nd fluid for disintegration test, elution time 3 min), 12420.8 µg/mL. In addition, the Dissolved amount was 13285.5 µg/mL in series [2] (Metoclopramide, 2nd fluid for disintegration test, elution time 30 min) and 13564.1 µg/mL in series [2] (Metoclopramide, 2nd fluid for disintegration test, elution time 360 min).
As to `CCn1cc(C(=O)O)c(=O)c2cc(F)c(N3CCNCC3)cc21` [compound 27, Norfloxacin], the Dissolved amount came to 455.9 µg/mL in series [1] (water, elution time 3 min); 523.1 µg/mL in series [1] (water, elution time 10 min); 492.3 µg/mL in series [1] (water, elution time 30 min); 470.7 µg/mL in series [1] (water, elution time 120 min); 395.5 µg/mL in series [1] (water, elution time 360 min); 688.7 µg/mL in series [2] (setting [4]). For the same compound, the Dissolved amount in series [2] (setting [5]) worked out at 767.1 µg/mL; in series [2] (setting [6]), 744.1 µg/mL; in series [2] (setting [10]) it was 721.6 µg/mL; in series [2] (setting [9]), 694.7 µg/mL.
For `CCS(=O)(=O)CCn1c([N+](=O)[O-])cnc1C` [compound 25, Tinidazole], the Dissolved amount turned out to be 2973.2 µg/mL in series [1] (water, elution time 3 min); 3880.0 µg/mL in series [1] (water, elution time 10 min); 4558.1 µg/mL in series [1] (water, elution time 30 min); 6034.2 µg/mL in series [1] (water, elution time 120 min); 6207.6 µg/mL in series [1] (water, elution time 360 min); 4613.3 µg/mL in series [2] (setting [4]). The Dissolved amount is 5425.9 µg/mL in series [2] (setting [5]), 5825.0 µg/mL in series [2] (setting [6]), 7003.0 µg/mL in series [2] (setting [10]) and 6133.3 µg/mL in series [2] (setting [9]).
Regarding `COc1ccc2c(c1)c(CC(=O)O)c(C)n2C(=O)c1ccc(Cl)cc1` [compound 20, Indomethacin], the Dissolved amount in series [1] (water, elution time 3 min) was found to be 7.8 µg/mL; in series [1] (water, elution time 10 min), 7.9 µg/mL; in series [1] (water, elution time 30 min), 8.0 µg/mL; in series [1] (water, elution time 120 min), 8.5 µg/mL; in series [1] (water, elution time 360 min) it was 8.2 µg/mL; in series [2] (setting [4]), 627.9 µg/mL. For the same compound, the Dissolved amount in series [2] (setting [5]) was determined as 693.7 µg/mL; in series [2] (setting [6]) it was 821.8 µg/mL; in series [2] (setting [10]), 928.5 µg/mL; in series [2] (setting [9]) it was 1114.4 µg/mL.
As to `NC(N)=Nc1nc(CSCCC(N)=NS(N)(=O)=O)cs1` [Comparative Example 17, Famotidine], the Dissolved amount in series [1] (water, elution time 1 min) was found to be 1162.9 µg/mL; in series [1] (water, elution time 3 min) it was 1416.8 µg/mL; in series [1] (water, elution time 10 min) it was 1502.6 µg/mL; in series [1] (water, elution time 30 min) it was 1566.8 µg/mL; in series [1] (water, elution time 60 min), 1565.8 µg/mL; in series [1] (water, elution time 180 min), 1509.8 µg/mL. Moreover, the Dissolved amount in series [1] (water, elution time 360 min) is 1497.4 µg/mL; in series [2] (setting [3]), 1980.2 µg/mL; in series [2] (setting [4]) it was 2286.6 µg/mL; in series [2] (setting [5]), 2541.7 µg/mL; in series [2] (setting [6]) it was 2600.9 µg/mL; in series [2] (setting [7]), 2667.9 µg/mL. In addition, in series [2] (setting [9]), the Dissolved amount is 2410.4 µg/mL.
With `CC(=O)O[C@]1(C(C)=O)CC[C@H]2[C@@H]3C=C(Cl)C4=CC(=O)CC[C@]4(C)[C@H]3CC[C@@]21C` [Comparative Example 3-2, Chlormadinone acetate], the Dissolved amount in series [1] (setting [11]) stood at 1.2 µg/mL; in series [1] (water, elution time 1 min) it was 0.6 µg/mL; in series [1] (water, elution time 3 min), 0.6 µg/mL; in series [1] (water, elution time 10 min), 0.7 µg/mL; in series [1] (water, elution time 30 min) it was 0.9 µg/mL; in series [1] (water, elution time 60 min) it was 1.0 µg/mL. In addition, the Dissolved amount in series [1] (water, elution time 180 min) came out at 1.1 µg/mL; in series [1] (water, elution time 360 min), 1.2 µg/mL; in series [2] (setting [3]), 1.4 µg/mL; in series [2] (setting [4]), 1.4 µg/mL; in series [2] (setting [5]) it was 1.8 µg/mL; in series [2] (setting [6]), 1.0 µg/mL. In addition, the Dissolved amount in series [2] (setting [7]) is 1.0 µg/mL; in series [2] (setting [8]) it was 2.3 µg/mL; in series [2] (setting [9]) it was 2.8 µg/mL; in series [2] (setting [12]) it was 2.8 µg/mL.
As to `CCCCCCC(=O)O[C@H]1CC[C@H]2[C@@H]3CCc4cc(O)ccc4[C@H]3CC[C@]12C` [compound 44, Estradiol Enanthate], the Dissolved amount in series [1] (Estradiol Enanthate, water, elution time 3 min) stood at 1.6 µg/mL; in series [1] (Estradiol Enanthate, water, elution time 10 min) it was 1.4 µg/mL; in series [1] (Estradiol Enanthate, water, elution time 30 min) it was 1.8 µg/mL; in series [1] (Estradiol Enanthate, water, elution time 120 min) it was 1.6 µg/mL; in series [1] (Estradiol Enanthate, water, elution time 360 min), 1.3 µg/mL; in series [2] (Estradiol Enanthate, 2nd fluid for disintegration test, elution time 3 min), 7.9 µg/mL. In addition, the Dissolved amount in series [2] (Estradiol Enanthate, 2nd fluid for disintegration test, elution time 30 min) stood at 7.0 µg/mL; in series [2] (Estradiol Enanthate, 2nd fluid for disintegration test, elution time 120 min) it was 19.0 µg/mL; in series [2] (Estradiol Enanthate, 2nd fluid for disintegration test, elution time 360 min), 10.9 µg/mL.
As to `Oc1ncnc2[nH]ncc12` [compound 39, Allopurinol], the Dissolved amount turned out to be 578.2 µg/mL in series [1] (Allopurinol, water, elution time 3 min); 679.4 µg/mL in series [1] (Allopurinol, water, elution time 10 min); 773.9 µg/mL in series [1] (Allopurinol, water, elution time 30 min); 741.5 µg/mL in series [1] (Allopurinol, water, elution time 120 min); 712.5 µg/mL in series [1] (Allopurinol, water, elution time 360 min); 565.4 µg/mL in series [2] (Allopurinol, 2nd fluid for disintegration test, elution time 3 min). Also, the Dissolved amount turned out to be 672.6 µg/mL in series [2] (Allopurinol, 2nd fluid for disintegration test, elution time 10 min); 725.7 µg/mL in series [2] (Allopurinol, 2nd fluid for disintegration test, elution time 30 min); 722.8 µg/mL in series [2] (Allopurinol, 2nd fluid for disintegration test, elution time 120 min); 696.1 µg/mL in series [2] (Allopurinol, 2nd fluid for disintegration test, elution time 360 min).
On to `O=C1NC(=O)C(c2ccccc2)(c2ccccc2)N1` [compound 21, Phenyloin], for which the Dissolved amount in series [1] (water, elution time 3 min) worked out at 26.5 µg/mL; in series [1] (water, elution time 10 min), 23.3 µg/mL; in series [1] (water, elution time 360 min), 24.1 µg/mL; in series [2] (setting [4]), 17.4 µg/mL; in series [2] (setting [5]) it was 42.1 µg/mL; in series [2] (setting [6]), 50.7 µg/mL. Also, the values for the Dissolved amount in series [2] (setting [10]) and in series [2] (setting [9]) were 27.2 µg/mL and 32.5 µg/mL, respectively.
For `CC(C)(Sc1cc(C(C)(C)C)c(O)c(C(C)(C)C)c1)Sc1cc(C(C)(C)C)c(O)c(C(C)(C)C)c1` [Comparative Example 5-3, Probucol], the Dissolved amount in series [1] (setting [11]) amounted to 9.7 µg/mL; in series [1] (water, elution time 1 min), 0.7 µg/mL; in series [1] (water, elution time 3 min), 2.7 µg/mL; in series [1] (water, elution time 10 min), 3.7 µg/mL; in series [1] (water, elution time 30 min), 6.1 µg/mL; in series [1] (water, elution time 60 min), 7.6 µg/mL. The Dissolved amount is 8.3 µg/mL in series [1] (water, elution time 180 min); 9.7 µg/mL in series [1] (water, elution time 360 min); 4.7 µg/mL in series [2] (setting [3]); 14.9 µg/mL in series [2] (setting [4]); 19.9 µg/mL in series [2] (setting [5]); 21.2 µg/mL in series [2] (setting [6]). Also, the Dissolved amount in series [2] (setting [7]) amounted to 21.8 µg/mL; in series [2] (setting [8]) it was 26.8 µg/mL; in series [2] (setting [9]), 28.0 µg/mL; in series [2] (setting [12]) it was 28.0 µg/mL.
Consider `Cc1ccc(S(=O)(=O)NC(=O)NN2CC3CCCC3C2)cc1` (stereo not shown) [compound 32, Gliclazide], for which the Dissolved amount in series [1] (Gliclazide, water, elution time 3 min) was 11.1 µg/mL; in series [1] (Gliclazide, water, elution time 10 min), 26.3 µg/mL; in series [1] (Gliclazide, water, elution time 30 min), 35.4 µg/mL; in series [1] (Gliclazide, water, elution time 120 min) it was 38.8 µg/mL; in series [1] (Gliclazide, water, elution time 360 min), 39.3 µg/mL; in series [2] (Gliclazide, 2nd fluid for disintegration test, elution time 3 min), 80.1 µg/mL. Further, the Dissolved amount in series [2] (Gliclazide, 2nd fluid for disintegration test, elution time 30 min) came out at 296.1 µg/mL; in series [2] (Gliclazide, 2nd fluid for disintegration test, elution time 120 min), 420.2 µg/mL; in series [2] (Gliclazide, 2nd fluid for disintegration test, elution time 360 min) it was 429.4 µg/mL.
